Results on 39 molecules are retold here after ChEMBL document CHEMBL3045593, “Synthesis and Fungicidal Activities of 3-(-Alkoxyiminobenzyl)isoxazole Derivatives” (J Pestic Sci, 1999).

Molecules are shown by their SMILES. Where only a bound is given, the exact number is not on record here.

Assay [1] concerns Blumeria graminis f. sp. tritici. Briefly: Fungicidal activity against Blumeria graminis f. sp. triticii inoculated on wheat seedlings followed by 31.3 ppm compound application 7 days after fungal inoculation assessed as wheat powdery mildew disease controlling activity relative to untreated control. It counts as functional.
Assay [2] has as its system Golovinomyces cichoracearum. Description: Fungicidal activity against Golovinomyces cichoracearum in cucumber seedlings assessed as cucumber powdery mildew disease controlling activity at 7.8 ppm applied through preventive application relative to untreated control. It counts as functional.
For assay [3], the system named is Blumeria graminis f. sp. tritici. Briefly: Fungicidal activity against Blumeria graminis f. sp. triticii inoculated on wheat seedlings followed by 500 ppm compound application 7 days after fungal inoculation assessed as wheat powdery mildew disease controlling activity relative to untreated control. In kind it is functional.
In assay [4] the test system is Golovinomyces cichoracearum. Briefly: Fungicidal activity against Golovinomyces cichoracearum in cucumber seedlings assessed as cucumber powdery mildew disease controlling activity at 31.3 ppm applied through preventive application relative to untreated control. It counts as functional.
In assay [5] the test system is Blumeria graminis f. sp. tritici. Briefly: Fungicidal activity against Blumeria graminis f. sp. triticii inoculated on wheat seedlings followed by 125 ppm compound application 7 days after fungal inoculation assessed as wheat powdery mildew disease controlling activity relative to untreated control. It counts as functional.
In assay [6] the test system is Golovinomyces cichoracearum. Briefly: Fungicidal activity against Golovinomyces cichoracearum in cucumber seedlings assessed as cucumber powdery mildew disease controlling activity at 500 ppm applied through preventive application relative to untreated control. In kind it is functional.
Assay [7] concerns Blumeria graminis f. sp. tritici. Description: Fungicidal activity against Blumeria graminis f. sp. triticii inoculated on wheat seedlings followed by 7.8 ppm compound application 7 days after fungal inoculation assessed as wheat powdery mildew disease controlling activity relative to untreated control. It counts as functional.
Assay [8] shares this test system. Description: Fungicidal activity against Blumeria graminis f. sp. triticii inoculated on wheat seedlings followed by 400 ppm compound application 7 days after fungal inoculation assessed as wheat powdery mildew disease controlling activity relative to untreated control. It counts as functional.
Assay [9] has the same test system. Briefly: Fungicidal activity against Blumeria graminis f. sp. triticii inoculated on wheat seedlings followed by 100 ppm compound application 7 days after fungal inoculation assessed as wheat powdery mildew disease controlling activity relative to untreated control. It counts as functional.
The subject of assay [10] is Oculimacula yallundae. Briefly: Fungicidal activity against Oculimacula yallundae inoculated oat seeds followed by transfer of inoculated oat seedlings on foot of wheat seedlings followed by 100 ppm compound spraying assessed as degree of wheat eye spot infection (reference value: 82.9 %). In kind it is functional.
Assay [11] deals with Oculimacula yallundae. Briefly: Fungicidal activity against Oculimacula yallundae inoculated oat seeds followed by transfer of inoculated oat seedlings on foot of wheat seedlings followed by 400 ppm compound spraying assessed as degree of wheat eye spot infection (reference value: 82.9 %). It counts as functional.
Assay [12] deals with Oculimacula yallundae. Briefly: Fungicidal activity against Oculimacula yallundae assessed as inhibition of mycelial growth. In kind it is functional, organism-based.
Assay [13] deals with Oculimacula yallundae. Description: Fungicidal activity against Oculimacula yallundae inoculated oat seeds followed by transfer of inoculated oat seedlings on foot of wheat seedlings followed by 400 ppm compound spraying assessed as wheat eye spot disease control activity relative to untreated control. It counts as functional.
Assay [14] has as its system Oculimacula yallundae. Briefly: Fungicidal activity against Oculimacula yallundae inoculated oat seeds followed by transfer of inoculated oat seedlings on foot of wheat seedlings followed by 100 ppm compound spraying assessed as wheat eye spot disease control activity relative to untreated control. It counts as functional.
In assay [15] the test system is Blumeria graminis f. sp. tritici. Description: Fungicidal activity against Blumeria graminis f. sp. triticii inoculated on wheat seedlings followed by 400 ppm compound application 7 days after fungal inoculation assessed as infected leaf area (reference value: 37.8%). In kind it is functional.
The test system is the same in assay [16]. Briefly: Fungicidal activity against Blumeria graminis f. sp. triticii inoculated on wheat seedlings followed by 100 ppm compound application 7 days after fungal inoculation assessed as infected leaf area (reference value: 37.8%). It counts as functional.
For assay [17], the system named is Golovinomyces cichoracearum. Briefly: Fungicidal activity against Golovinomyces cichoracearum in cucumber seedlings assessed as cucumber powdery mildew disease controlling activity at 125 ppm applied through preventive application relative to untreated control. In kind it is functional.
Assay [18] deals with Blumeria graminis f. sp. tritici. Description: Fungicidal activity against Blumeria graminis f. sp. triticii inoculated on wheat seedlings followed by 125 ppm compound application 7 days after fungal inoculation assessed as infected leaf area (reference value: 37.8%). It counts as functional.

As for `CON=C(c1ccon1)c1ccccc1COc1cc(Cl)ccc1Cl`, the Activity in assay [1] and in assay [2] was 90% throughout.
On to `CON=C(c1ccon1)c1ccccc1COc1c(Cl)cccc1Cl`, for which the results for the Activity in [3] and in assay [4] were under 90% and 90%, respectively.
As for `CON=C(c1ccon1)c1ccccc1COc1ccc(Cl)c(Cl)c1`, the Activity in assay [5] and in [4] was 90% in each case.
`CON=C(c1ccon1)c1ccccc1COc1cc(Cl)cc(Cl)c1Cl`: the Activity is given as 90% in [6] and under 90% in assay [3].
Consider `CON=C(c1ccon1)c1ccccc1COc1cccc(C)c1C`, for which the Activity in [5] and in assay [2] was 90% in each case.
For `CON=C(c1ccon1)c1ccccc1COc1ccc(C)cc1C`, the Activity in [5] and in assay [2] was 90% each time.
As for `CON=C(c1ccon1)c1ccccc1COc1cc(C)ccc1C`, the Activity in [7] amounted to 90%; in assay [8] it was 86%; in assay [9], 78%; in assay [10], 36.9%; in assay [11], 19.8%; in assay [2] it was 90%. In addition, the Activity is on record as 76% in assay [13], 56% in [14], 5.8% in assay [15] and 9.3% in assay [16]. The EC50 in assay [12] turned out to be 1.05 ppm.
For `CON=C(c1ccon1)c1ccccc1COc1c(C)cccc1C`, the Activity in assay [17] and in assay [5] was 90% each time.
In the case of `CON=C(c1ccon1)c1ccccc1COc1ccc(C)c(C)c1`, the Activity in assay [5] and in assay [4] was 90% in each case.
`CON=C(c1ccon1)c1ccccc1COc1cc(C)cc(C)c1C`: the Activity in [7] and in assay [2] was 90% in each case. Besides, in assay [12], the EC50 is reported as 3.9 ppm.
Take `CON=C(c1ccon1)c1ccccc1COc1ccc(Cl)cc1C`: the Activity in assay [1] and in assay [2] was 90% in each case.
As for `Cc1ccc(C)c(OCc2ccccc2C(=NO)c2ccon2)c1`, the Activity is 90% in assay [17] and under 90% in [3].
Turning to `CCON=C(c1ccon1)c1ccccc1COc1cc(C)ccc1C`, the Activity in assay [6] and in assay [3] was under 90% each time.
Turning to `CCCON=C(c1ccon1)c1ccccc1COc1cc(C)ccc1C`, the Activity in [6] and in assay [3] was under 90% throughout.
Consider `Cc1ccc(C)c(OCc2ccccc2C(=NOC(C)C)c2ccon2)c1`, for which the Activity in assay [6] and in assay [3] was under 90% each time.
As to `C=CCON=C(c1ccon1)c1ccccc1COc1cc(C)ccc1C`, the Activity in assay [6] and in assay [3] was under 90% throughout.
`CNC(=O)/C(=N/OC)c1ccccc1COc1cc(C)ccc1C`: the Activity in assay [8] turned out to be 63%; in assay [9] it was 69%; in assay [10], 66.5%; in assay [11], 36.7%; in assay [13], 56%; in assay [14], 20%. Besides, the Activity is 15.5% in [15] and 13% in assay [16]. Moreover, in assay [12], the EC50 came to 1.09 ppm.
In the case of `CON=C(c1ccon1)c1ccccc1COc1ccc(Cl)cc1`, the Activity in assay [3] and in assay [2] was 90% in each case.
`CON=C(c1ccon1)c1ccccc1COc1ccccc1C`: the Activity in assay [7] and in assay [2] was 90% each time. Moreover, the EC50 in [12] is 1.42 ppm.
Regarding `CON=C(c1ccon1)c1ccccc1COc1cccc(C)c1`, the Activity in assay [5] and in [4] was 90% in each case.
On to `CON=C(c1ccon1)c1ccccc1COc1ccc(C)cc1`, for which the Activity in assay [5] and in assay [2] was 90% throughout.
For `CCc1ccccc1OCc1ccccc1C(=NOC)c1ccon1`, the Activity in [5] and in assay [4] was 90% throughout.
As for `CON=C(c1ccon1)c1ccccc1COc1ccccc1OC`, the results for the Activity in [17] and in assay [3] were 90% and under 90%, respectively.
On to `CON=C(c1ccon1)c1ccccc1COc1ccccc1Br`, for which the Activity in [5] and in [2] was 90% each time.
Consider `CON=C(c1ccon1)c1ccccc1COc1ccccc1C(F)(F)F`, for which the Activity in assay [3] and in assay [4] was 90% each time.
In the case of `CON=C(c1ccon1)c1ccccc1COc1ccccc1[N+](=O)[O-]`, the Activity in assay [6] and in assay [3] was under 90% throughout.
Regarding `CON=C(c1ccon1)c1ccccc1COc1ccc(F)cc1F`, the Activity in assay [5] and in [2] was 90% each time.
For `CON=C(c1ccon1)c1ccccc1COc1cc(F)ccc1F`, the Activity in assay [5] and in assay [4] was 90% each time.
In the case of `CON=C(c1ccon1)c1ccccc1COc1ccc(Cl)cc1Cl`, the values for the Activity in assay [3] and in assay [2] were under 90% and 90%, respectively.
For the molecule `CON=C(c1ccon1)c1ccccc1Oc1ccccc1`, the Activity in assay [3] and in assay [4] was 90% each time.
`CON=C(c1ccon1)c1ccccc1OCc1ccccc1`: the Activity in assay [17] is on record as 90%.
For the molecule `CON=C(c1ccon1)c1ccccc1COc1ccccc1`, the Activity in assay [3] and in assay [4] was 90% each time.
Turning to `CON=C(c1ccon1)c1ccccc1COc1ccc(F)cc1`, the Activity in assay [3] and in assay [4] was 90% in each case.
On to `CON=C(c1ccon1)c1ccccc1COc1cccc(F)c1`, for which the Activity in assay [17] and in assay [3] was 90% each time.
With `CON=C(c1ccon1)c1ccccc1COc1ccccc1F`, the Activity in [5] and in assay [4] was 90% each time.
Take `CON=C(c1ccon1)c1ccccc1COc1ccccc1Cl`: the Activity in assay [5] and in [2] was 90% throughout.
`CON=C(c1ccon1)c1ccccc1COc1cccc(Cl)c1`: the Activity in assay [3] and in assay [4] was 90% each time.
`CCCN(CCOc1c(Cl)cc(Cl)cc1Cl)C(=O)n1ccnc1` [PROCHLORAZ]: the Activity stood at 63.5% in assay [10], 28.3% in assay [11], 66% in assay [13] and 23% in assay [14]. Further, the EC50 in assay [12] turned out to be 0.04 ppm.
In the case of `CC(C)(C)C(=O)C(Oc1ccc(Cl)cc1)n1cncn1` (stereo not drawn) [TRIADIMEFON], the values for the Activity in assay [5] and in assay [18] were 97% and 1.4%, respectively.
